Data taken from patent US8414885B2, “Methods and compositions for treating cancer” (priority 2009, dated 2013).
Peptide text beside a SMILES is read from it. * marks the point of attachment. Cbz = O=C(OCc1ccccc1)*; CH2F = FC*

How the values were obtained:
caspase-7 = target: T1, caspase-7 (Homo sapiens, UniProt P55210); assay: Immunoblotting for caspase-7 activation in infected melanoma cells; type: cell-based; details: delta-PK infected cultures, 24 hrs p.i.; PD150606 100 μM; z-VAD-fmk 100 μM (Sigma-Aldrich) or 20 μM (Promega)
T1 construct: endogenous in cells; host or cells: A2058 human melanoma cells infected with delta-PK
T1 sequence (P55210 24-198 limits assumed): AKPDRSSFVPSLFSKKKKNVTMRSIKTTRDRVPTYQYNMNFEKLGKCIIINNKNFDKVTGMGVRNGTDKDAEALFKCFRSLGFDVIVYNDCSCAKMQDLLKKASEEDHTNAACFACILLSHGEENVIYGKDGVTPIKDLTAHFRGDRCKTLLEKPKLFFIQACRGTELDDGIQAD
T1 sequence (P55210 207-303 limits assumed): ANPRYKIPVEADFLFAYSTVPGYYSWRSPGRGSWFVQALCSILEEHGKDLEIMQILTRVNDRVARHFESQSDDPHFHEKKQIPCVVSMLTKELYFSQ
Excerpt: (§1) FIG. 6. Calpain and caspase-7 and caspace-3 are activated in delta-PK infected melanoma cells. […] Data were quantified by densitometry and expressed as the ratio of the p76/p80 and p28 densitometric units +/−SD, respectively. Representatives of three replicate experiments are shown (***p<0.001 vs. Mock). B. The immunoblots in FIG. 6A were sequentially stripped and re-probed with antibodies to activated caspase-7, activated caspase-3, and actin. Data were quantified by densitometry and results are expressed as densitometric units +/−SD (**p<0.01, ***p<0.001 vs. Mock). C. […]
(§2) Cultured cells were lysed with radioimmunoprecipitation buffer [RIPA; 20 mM Tris-HCl (pH 7.4), […], 1% Nonidet P-40, 0.1% sodium dodecyl sulfate (SDS), 0.5% sodium deoxycholate] supplemented with protease and phosphatase inhibitor cocktails (Sigma-Aldrich), and sonicated twice for 30 seconds at 25% output power with a sonicator ultrasonic processor (Misonix, Inc., Farmingdale, N.Y.). […] Protein concentration was determined by the bicinchoninic assay (Pierce, Rockford, Ill.), and 100 μg protein samples were resolved by SDS-polyacrylamide gel elecrophoresis (SDS-PAGE) and transferred to polyvinylidene fluoride membranes followed by immunoblotting. […] Quantitation was by densitometric scanning with the Bio-Rad GS-700 imaging densitometer (Bio-Rad, Hercules, Calif.). […]

calpain = assay: Immunoblotting for calpain activation in infected melanoma cells; type: cell-based, human; details: delta-PK infected cultures; PD150606 100 μM; z-VAD-fmk 100 μM (Sigma-Aldrich) or 20 μM (Promega)
Excerpt: as §1, §2

O=C(O)/C(S)=C/c1ccc(I)cc1 [PD150606]
effect of inhibitor on delta-PK induced caspase-7 activation / cleavage products (caspase-7): increased | effect of inhibitor on delta-PK induced calpain activation (p76/p80 ratio, p28) (calpain): inhibited

COC(=O)C[C@H](NC(=O)[C@H](C)NC(=O)[C@@H](NC(=O)OCc1ccccc1)C(C)C)C(=O)CF [z-VAD-fmk, benzyloxcarbonyl-Val-Ala-Asp-fluormethyl ketone] (Cbz-Val-Ala-Asp(OMe)-CH2F)
effect of inhibitor on delta-PK induced caspase-7 activation / cleavage products (caspase-7): inhibited | effect of inhibitor on delta-PK induced calpain activation (p76/p80 ratio, p28) (calpain): did not affect calpain activation
